Experimental data reported in EP0723771A2, “Agent and process for permanent hair waving” (Wella Aktiengesellschaft, priority 1995, dated 1996).

Conditions: lower pH values (pH = 7 or 8); conclusion from Tabelle 1
Description: Zum Vergleich der Wellwirksamkeit wurden an blondierten Haarsträhnen aus mitteleuropäischem Haar Wellstabilitäten ermittelt. Hierzu wurden 16,5 Zentimeter lange, aus etwa 100 Haaren bestehende Haarsträhnen auf Wickler mit einem Innendurchmesser von 3 Millimetern gewickelt und mit einer 87 mmol Reduktionsmittel pro 100 g Lösung enthaltenden, auf den jeweiligen pH-Wert eingestellten, Reduktionsmittellösung bei 50 Grad Celsius 20 Minuten lang behandelt, wobei eine Menge von 1,2 ml Reduktionsmittellösung pro Gramm Haarsträhne verwendet wurde.
Anschließend wurde das Haar mit einer 3-prozentigen wäßrigen Wasserstoffperoxidlösung oxidativ nachbehandelt, getrocknet und sodann 4 Stunden lang in Wasser ausgehängt. Im Anschluß hieran wurde die Wellstabilität bestimmt.
Die Wellstabilitäten wurden hierbei nach der folgenden Formel ermittelt: [formula] I0 = Gesamtlänge der nicht umgeformten, gestreckten Strähne (16,5 Zentimeter) It = Länge der abgewickelten, ausgehängten Strähne nach 240 Minuten I1 = Länge der umgeformten, aufgewickelten Strähne bei einem Wickelinnendurchmesser von 3 mm (I1 = 35 Millimeter)
Als Reduktionsmittel wurden Cysteamin (Formel (I) mit R = H) und N-Mesylcysteamin (Formel (I) mit R = SO2CH3) sowie als Vergleichsstandard eine auf pH = 9 eingestellte Glycerinmonothioglycolat-Lösung (Wellstabilität = 100 %) verwendet. […]

## CS(=O)(=O)NCCS [R = -SO2-CH3, N-2-Mercaptoethylmethansulfonsäureamid]
  Wellwirksamkeit gegenüber Cysteamin: signifikant höhere Wellwirksamkeit
